Assays:
Nox4 mRNA = Nox4 mRNA expression by quantitative real-time RT-PCR after tamoxifen induction in Nox4-CreERT2 mice; type: in vivo, mouse; conditions: tamoxifen 1 mg/d i.p. for 3 d
Experimental: Tamoxifen induction. Tamoxifen (Sigma Aldrich) was prepared by dissolving in ethanol (10 mg per 100 μl) and mixing this solution with 900 μl corn oil for a final concentration of 10 mg/ml. Eight- to ten-week-old Nox4-CreERT2 mice were i.p. injected with 100 μl tamoxifen solution (1 mg, corresponding to about 40 mg/kg tamoxifen) once a day at 10, 11 and 12 d after SNI.
Mice were exsanguinated under deep isoflurane anaesthesia, and tissues were dissected, snap frozen in liquid nitrogen and stored at −80° C. Total RNA from spinal cord, brain and DRGs was extracted under RNase-free conditions using a RNA isolation kit (for spinal cord and brain: RNeasy® Lipid Tissue Mini Kit; Qiagen; for DRGs: RNAqueous Micro Kit; Ambion) according to the manufacturer's instructions, DNase treated for 15 min to minimize genomic DNA contamination and quantified with a NanoDrop® ND-1000 spectrophotometer (NanoDrop® Technologies). cDNA was synthesized using 200 ng RNA, random hexamer primers, RT-Enhancer and the Verso®-enzyme of the Verso® Kit (Thermo Scientific). Real-time RT-PCR was performed with an ABI Prism® 7500 Sequence Detection System (Applied Biosystems) using TaqMan Gene Expression Assays for murine Nox4 (Mm01317086_ml), Nox1 (Mm00549170_m1), Nox2 (Mm01287742_m1), Nox3 (Mm01339132_m1), GAPDH (Mm99999915_μl) and β-actin (Mm00607939_s1), purchased from Applied Biosystems. […] Relative expression of target gene levels was determined using the comparative ΔΔCt method, with Ct indicating the cycle number at which the signal of the PCR product crosses an arbitrary threshold set within the exponential phase of the PCR. […]
(§1) Global gene ablation may cause developmental compensatory adaptations that might affect phenotypic changes in the genetically manipulated adult animal. […] Ten days after SNI, mice were i.p. injected with tamoxifen (1 mg/d for 3 d) to activate Cre recombinase and knock-down Nox4, and paw withdrawal latency times were measured up to 21 d after the first injection.

Nox4-CreERT2 mice = test: Mechanical allodynia (paw withdrawal latency) in the spared nerve injury (SNI) model after tamoxifen induction; type: in vivo, mouse; conditions: tamoxifen 1 mg/d i.p. for 3 d starting 10 d after SNI, observed up to 21 d, no effect in the first 7 d or in tamoxifen-treated control mice
Experimental: Mechanical paw sensitivity. Paw withdrawal latency after mechanical stimulation was measured with an automated von Frey-type testing device (Dynamic Plantar Aesthesiometer; Ugo Basile) which allows for reliable detection of mechanical sensitivity in mice (Schmidtko et al., 2008). The stainless steel probe of the touch stimulator unit was pushed against the paw with ascending force until a strong and immediate withdrawal occurred. The maximum force was set at 5 g and the ramp speed was 0.5 g/s. The paw withdrawal latency was calculated as the mean of 4-6 measurements with at least 20 s in between.
Neuropathic pain. The “spared nerve injury” (SNI) model and the “chronic constriction injury” (CCI) model were used to investigate neuropathic pain behavior. Surgery was carried out under isoflurane anaesthesia. For SNI, two branches of the sciatic nerve were ligated and cut distally, leaving the sural nerve intact (Decosterd and Woolf, 2000). […]
as §1

**Q.** How did the “Nox4 mRNA in DRGs as compared to vehicle-treated Nox4-CreERT2 mice” value (Nox4 mRNA; Nox4-CreERT2 mice, SNI, 21 d after tamoxifen treatment, P=0.008) turn out when CC/C(=C(\c1ccccc1)c1ccc(OCCN(C)C)cc1)c1ccccc1 [tamoxifen, Tamoxifen] was run?
**A.** The value was 54%.

**Q.** And the “Nox4 mRNA in the spinal cord as compared to vehicle-treated Nox4-CreERT2 mice” value (Nox4 mRNA; Nox4-CreERT2 mice, SNI, 21 d after tamoxifen treatment, P=0.116)?
**A.** Its value is 83%.

**Q.** What about the “Nox4 mRNA in DRGs, of baseline levels” value (Nox4 mRNA; 21 d after treatment, no significant reduction in the spinal cord) of the same compound?
**A.** The value was about 50%.

**Q.** And the “Mechanical allodynia (paw withdrawal latency after mechanical stimulation)” value (Nox4-CreERT2 mice)?
**A.** Its value is “gradually recovered from mechanical allodynia”.

Reference: patent US20150051264A1, “INHIBITORS OF NOX4 EXPRESSION AND /OR NOX4 FUNCTION AND THEIR USE IN THE PREVENTION AND TREATMENT OF NERVE INJURY AND/OR NEUROPATHIC PAIN” (FRAUNHOFER-GESELLSCHAFT ZUR FOERDERUNG DER ANGEWANDTEN …, priority 2011, published 2015)
